Data taken from patent US11053236B2, “Substituted isoselenazolone anti-infective, anti-inflammatory, anti-cancer, cytoprotective, neuroprotective, and anti-oxidant agents” (priority 2016, dated 2021).
Converted amounts (≈) assume the structure as drawn.

What was measured:
[1] = target: Mtb Ag85C (Mycobacterium tuberculosis, UniProt P9WQN9); test: Fluorometric resorufin butyrate/trehalose assay of Mtb Ag85C activity; type: biochemical; conditions: for remaining activity at 5 µM: 5 μM compound, 40 min of incubation, normalized to control without inhibitor, read-out: Percent of Mtb Ag85C activity remaining
[2] = test system: Mycobacterium tuberculosis H37Rv; test: Minimum inhibitory concentration for Mycobacterium tuberculosis H37Rv strain (Table A); type: cell-based; conditions: for MIC / MIC50: Mycobacterium tuberculosis, Strain Mtb H37Rv
[3] = test system: Mtb H37Rv; test: microbe, parasite or virus in culture; type: cell-based; conditions: Mycobacterium tuberculosis, MABA
[4] = target: Ag85C (Mycobacterium tuberculosis, UniProt P9WQN9); test: Activity of Ag85C modified by compounds over time (FIGS. 6A-6B); type: biochemical
From the text: FIGS. 6A-6B: Activity of Ag85C modified by compounds 506e (FIG. 6A) and 506f (FIG. 6B) over time.
FIGS. 6A-6B show the activity of Ag85C modified by compounds 506e and 506f over time.

[5] = test system: MRHF cells treated with TcdB and TcdA; test: Cytotoxicity assay: inhibition of toxin-induced cell rounding; type: cell-based, human; conditions: 0.05 mL of 40 μM compound mixed with 0.05 mL TcdB and TcdA solution, 30 min; MRHF cells 2 h
Method: Cytotoxicity data was collected using a qualitative assay designed by Quidel to detect TcdB and TcdA presence in patients' stool samples. A solution containing TcdB and TcdA (0.05 mL) was mixed with 0.05 mL of a 40 μM solution of compounds of example 1-15 individually. These solutions were then incubated together for thirty minutes at room temperature. Then the 0.1 ml solutions were used to treat MRHF cells in a twenty four well plate. The cells were then incubated at thirty degrees Celsius under CO2 for two hours. Then, the cells were imaged using a 20× objective on an inverted microscope. […] Thus, compound 506o provides cytoprotection against Clostridium difficile toxins TcdB and TcdA.

Mtb Ag85C, sequence (P9WQN9 46-340 limits assumed): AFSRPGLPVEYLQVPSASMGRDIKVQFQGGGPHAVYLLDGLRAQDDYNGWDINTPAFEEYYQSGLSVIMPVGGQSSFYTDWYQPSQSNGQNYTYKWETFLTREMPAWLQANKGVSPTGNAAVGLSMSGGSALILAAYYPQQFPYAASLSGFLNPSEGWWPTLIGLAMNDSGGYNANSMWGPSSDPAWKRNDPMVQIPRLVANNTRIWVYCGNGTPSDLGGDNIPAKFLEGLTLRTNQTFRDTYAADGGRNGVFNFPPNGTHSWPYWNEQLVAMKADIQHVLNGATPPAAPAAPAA
Ag85C, sequence (P9WQN9 46-340): as the sequence (P9WQN9 46-340 limits assumed) above

O=c1c2ccccc2[se]n1C1CCCC1 [Compound 506l, 2-Cyclopentylbenzo[d][1,2]selenazol-3(2H)-one]
melting point: 119 to 120 °C
remaining activity at 5 µM [1]: 40%

COc1ccc(Cn2[se]c3ccccc3c2=O)cc1 [Compound 506a, 2-(4-methoxybenzyl)benzo[d][1,2]selenazol-3(2H)-one]
MIC [2]: 25 µg/mL (≈ 78.6 µM)
MIC50 [2]: 18.3 µg/mL (≈ 57.6 µM)

O=c1c2ccccc2[se]n1C1CCCCC1 [Compound 506m, 2-Cyclohexylbenzo[d][1,2]selenazol-3(2H)-one]
remaining activity at 5 µM [1]: 44%

[N-]=[N+]=Nc1ccc(-n2[se]c3ccccc3c2=O)cc1
melting point: 169 to 170 °C

O=C(CCCCC1SC[C@@H]2NC(=O)N[C@H]12)NCCOCCOCCOCCNC(=O)CCC(=O)N1Cc2ccccc2-c2nnn(-c3ccc(-n4[se]c5ccccc5c4=O)cc3)c2-c2ccccc21 (stereo partly drawn) [Compound 210, N-(13,16-dioxo-16-(3-(4-(3-oxobenzo[d][1,2]selenazol-2(3H)-yl)phenyl)-3,9-dihydro-8H-dibenzo[b,f][1,2,3]triazolo[4,5-d]azocin-8-yl)-3,6,9-trioxa-12-azahexadecyl)-5-((3aS,6aR)-2-oxohexahydro-1H-thieno[3,4-d]imidazol-4-yl)pentanamide]
MIC [3]: ≥ 50 µg/mL
remaining activity at 5 µM [1]: 61%

CC(C)Cn1[se]c2ccccc2c1=O
melting point: 114 to 116 °C

O=c1c2ccccc2[se]n1C12CC3CC(CC(C3)C1)C2
melting point: 215 to 217 °C

COc1ccccc1Cn1[se]c2ccccc2c1=O [Compound 506c, 2-(2-methoxybenzyl)benzo[d][1,2]selenazol-3(2H)-one]
MIC values against Mycobacterium tuberculosis compared with ebselen [2]: lower than ebselen
MIC [2]: 12.5 µg/mL (≈ 39.3 µM)
MIC50 [2]: 10.4 µg/mL (≈ 32.6 µM)
melting point: 169 to 170 °C
MIC [3]: 12.5 µg/mL (≈ 39.3 µM)
remaining activity at 5 µM [1]: 36%

[N-]=[N+]=Nc1ccc(NC(=O)c2ccccc2[Se]C#Cc2ccccc2)cc1 [Compound 208, N-(4-Azidophenyl)-2-((phenylethynyl)selanyl)-benzamide]
MIC [3]: ≥ 50 µg/mL

C=CCn1[se]c2ccccc2c1=O [Compound 506e, 2-allylbenzo[d][1,2]selenazol-3(2H)-one]
Activity of Ag85C modified by compound over time [4]: decrease in the activity of Ag85C
MIC values against Mycobacterium tuberculosis compared with ebselen [2]: lower than ebselen
MIC [2]: 12.5 µg/mL (≈ 52.5 µM)
MIC50 [2]: 10.4 µg/mL (≈ 43.5 µM)
MIC [3]: 12.5 µg/mL (≈ 52.5 µM)
remaining activity at 5 µM [1]: 15%
IC50 ([1]; 15 min of incubation, read-out: Apparent IC50 (appIC50) against Mtb Ag85C): 8.8 µM

COc1ccc(-n2[se]c3ccccc3c2=O)cc1 [Compound 506b, 2-(4-methoxyphenyl)benzo[d][1,2]selenazol-3(2H)-one]
MIC [2]: 25 µg/mL (≈ 82.2 µM)
MIC50 [2]: 19.3 µg/mL (≈ 63.4 µM)

O=c1c2ccccc2[se]n1CC1CCCCC1 [Compound 506f, 2-(cyclohexylmethyl)benzo[d][1,2]selenazol-3(2H)-one]
Activity of Ag85C modified by compound over time [4]: decrease in the activity of Ag85C
MIC [2]: 50 µg/mL (≈ 170 µM)
MIC50 [2]: 36.2 µg/mL (≈ 123 µM)
MIC [3]: ≥ 50 µg/mL
remaining activity at 5 µM [1]: 30%

O=c1c2ccccc2[se]n1Cc1ccccc1 [Compound 506d, 2-benzylbenzo[d][1,2]selenazol-3(2H)-one]
MIC [2]: 25 µg/mL (≈ 86.7 µM)
MIC50 [2]: 15 µg/mL (≈ 52.2 µM)

O=c1c2ccccc2[se]n1-c1ccccn1 [Compound 506o, 2-(Pyridin-2-yl)benzo[d][1,2]selenazol-3(2H)-one]
Inhibition of cell rounding (cell appearance) [5]: more intermediate phenotype

CC(C)(C)n1[se]c2ccccc2c1=O
melting point: 137 to 139 °C

O=c1c2ccccc2[se]n1-c1ccccc1 [Ebselen, 2-phenyl-1,2-benzisoselenazol-3(2H)-one, reference compound]
MIC [2]: 12.5 µg/mL (≈ 45.6 µM)
MIC50 [2]: 9.59 µg/mL (≈ 35 µM)
MIC [3]: 12.5 µg/mL (≈ 45.6 µM)
Inhibition of cell rounding (cell appearance) [5]: maintained their string-like appearance
remaining activity at 5 µM [1]: 17%
